Some results are limits rather than exact numbers.

The source of these data is patent US9981975B2, “Pyrrolotriazine compounds as tam inhibitors” (Incyte Corporation, priority 2016, dated 2018).

For assay [1], the target named is phosphor-Axl (Homo sapiens (Human), UniProt P30530). Briefly: TAM Enzymatic Assay (HTRF), Axl. In kind it is biochemical. Conditions: recombinant autophosphorylated Axl, 60 min, room temperature. As for the experimental part:
Autophosphorylation of Axl was carried out by incubating the recombinant Axl protein (Life Technologies, PV4275) in buffer containing 50 mM Tris, pH7.5, 0.2 mg/ml Axl, 5 mM ATP, 20 mM MgCl2 and 2 mM DTT at room temperature for 1 hour.
(§1) The kinase assay buffer contained 50 mM HEPES, pH7.5, 10 mM MgCl2, 1 mM EGTA, 0.01% NP-40 and 2 mM DTT. 0.1 ul test compounds dissolved in DMSO were transferred from compound plates to white 384-well assay plates (Greiner […] plates). […] 4 ul enzyme solution (or assay buffer for the enzyme blank) was added to the appropriate wells in each plate, and then 4 ul/well substrate solution was added to initiate the reaction. The plate was protected from light and incubated at room temperature for 60 min. […] The plate was incubated for 1 h at room temperature, and HTRF (homogenous time resolved fluorescence) signal was measured on a PHERAstar FS plate reader (BMG labtech). Percentage of inhibition was calculated for each concentration and IC50 value was generated from curve fitting with GraphPad Prism software.

For assay [2], the target named is Tyro3 (Homo sapiens (Human), UniProt Q06418). Put plainly: TAM Enzymatic Assay (HTRF), Tyro3. The assay is classed as biochemical. Conditions: Tyro3, 60 min, room temperature. The protocol:
as §1

phosphor-Axl, sequence (P30530 26-894): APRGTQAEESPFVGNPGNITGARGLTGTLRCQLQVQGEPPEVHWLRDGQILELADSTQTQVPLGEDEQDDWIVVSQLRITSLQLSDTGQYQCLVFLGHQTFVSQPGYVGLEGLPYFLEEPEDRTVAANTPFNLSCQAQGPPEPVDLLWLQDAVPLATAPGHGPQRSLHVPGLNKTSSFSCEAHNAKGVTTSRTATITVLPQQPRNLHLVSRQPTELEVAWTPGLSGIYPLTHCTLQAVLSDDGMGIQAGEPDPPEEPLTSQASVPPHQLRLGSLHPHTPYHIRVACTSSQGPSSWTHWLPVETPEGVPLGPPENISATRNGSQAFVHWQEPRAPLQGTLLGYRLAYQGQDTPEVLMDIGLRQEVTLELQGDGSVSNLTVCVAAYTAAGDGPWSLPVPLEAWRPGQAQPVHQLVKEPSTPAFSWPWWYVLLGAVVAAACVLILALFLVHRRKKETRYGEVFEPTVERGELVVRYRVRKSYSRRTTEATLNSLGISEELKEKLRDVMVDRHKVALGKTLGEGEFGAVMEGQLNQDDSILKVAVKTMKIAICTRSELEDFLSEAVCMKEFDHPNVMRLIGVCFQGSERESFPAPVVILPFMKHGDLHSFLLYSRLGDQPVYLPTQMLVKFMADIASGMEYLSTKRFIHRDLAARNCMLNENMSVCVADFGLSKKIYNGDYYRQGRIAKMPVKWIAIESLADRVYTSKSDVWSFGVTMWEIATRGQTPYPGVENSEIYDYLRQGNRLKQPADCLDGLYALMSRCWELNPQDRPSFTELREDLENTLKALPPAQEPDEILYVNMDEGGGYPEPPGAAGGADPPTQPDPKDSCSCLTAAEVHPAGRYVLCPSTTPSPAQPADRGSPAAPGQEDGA
Tyro3, sequence (Q06418 41-890): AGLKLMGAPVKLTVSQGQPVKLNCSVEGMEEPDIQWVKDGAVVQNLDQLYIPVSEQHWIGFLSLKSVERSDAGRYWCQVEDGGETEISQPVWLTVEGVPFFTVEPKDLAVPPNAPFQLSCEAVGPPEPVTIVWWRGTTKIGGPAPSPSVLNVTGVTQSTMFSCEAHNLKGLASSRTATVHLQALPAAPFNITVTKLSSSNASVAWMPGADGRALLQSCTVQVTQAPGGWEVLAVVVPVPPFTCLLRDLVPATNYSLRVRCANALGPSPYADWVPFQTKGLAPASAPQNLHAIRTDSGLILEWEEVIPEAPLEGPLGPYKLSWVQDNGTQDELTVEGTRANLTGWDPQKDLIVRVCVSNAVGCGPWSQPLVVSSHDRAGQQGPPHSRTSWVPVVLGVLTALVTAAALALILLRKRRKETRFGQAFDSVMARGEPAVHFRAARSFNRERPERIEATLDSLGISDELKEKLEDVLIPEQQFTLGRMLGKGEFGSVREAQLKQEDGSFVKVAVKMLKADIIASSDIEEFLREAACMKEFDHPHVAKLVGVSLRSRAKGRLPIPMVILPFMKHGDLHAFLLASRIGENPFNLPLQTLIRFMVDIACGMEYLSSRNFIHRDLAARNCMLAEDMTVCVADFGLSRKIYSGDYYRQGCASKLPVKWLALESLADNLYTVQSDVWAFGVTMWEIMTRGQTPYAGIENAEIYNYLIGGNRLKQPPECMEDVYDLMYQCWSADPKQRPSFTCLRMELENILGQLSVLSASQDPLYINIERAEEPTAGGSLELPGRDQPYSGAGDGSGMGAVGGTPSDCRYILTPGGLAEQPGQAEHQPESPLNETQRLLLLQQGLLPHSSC

Regarding `CC(C)C(=O)N1CCC(c2cc(-c3ccc(NC(=O)c4cn(C(C)C)cc(-c5cccnc5)c4=O)cc3)c3c(N)ncnn23)CC1` [Example 128, N-(4-(4-Amino-7-(1-isobutyrylpiperidin-4-yl)pyrrolo[1,2-f][1,2,4]triazin-5-yl)phenyl)-1-isopropyl-4-oxo-5-(pyridin-3-yl)-1,4-dihydropyridine-3-carboxamide], the IC50 in assay [1] was at most 5 nM; in assay [2], above 100 nM.

As for `CCOCc1c(C#N)cc(C(=O)Nc2ccc(-c3cc(C4CCN(C(=O)C(C)C)CC4)n4ncnc(N)c34)cc2)c(=O)n1-c1ccccc1` [Example 137, N-(4-(4-Amino-7-(1-isobutyrylpiperidin-4-yl)pyrrolo[2,1-f][1,2,4]triazin-5-yl)phenyl)-5-cyano-6-(ethoxymethyl)-2-oxo-1-phenyl-1,2-dihydropyridine-3-carboxamide], the concentration for half-maximal inhibition (IC50) was at most 5 nM in assay [1] and above 100 nM in assay [2].

With `CCn1cc(C(=O)Nc2ccc(-c3cc(C4CCN(C(=O)C(C)C)CC4)n4ncnc(N)c34)cc2)c(=O)n(-c2cccc(F)c2)c1=O` [Example 73, N-(4-(4-Amino-7-(1-isobutyrylpiperidin-4-yl)pyrrolo[1,2-f][1,2,4]triazin-5-yl)phenyl)-1-ethyl-3-(3-fluorophenyl)-2,4-dioxo-1,2,3,4-tetrahydropyrimidine-5-carboxamide], the IC50 in assay [1] is at most 5 nM; in assay [2], above 100 nM.

For the molecule `Cc1ncccc1-c1c(C)n(C2CC2)cc(C(=O)Nc2ccc(-c3cc(C4CCN(C(=O)C(C)C)CC4)n4ncnc(N)c34)cc2)c1=O` [Example 142, N-(4-(4-Amino-7-(1-isobutyrylpiperidin-4-yl)pyrrolo[2,1-f][1,2,4]triazin-5-yl)phenyl)-1-cyclopropyl-2,2′-dimethyl-4-oxo-1,4-dihydro-[3,3′-bipyridine]-5-carboxamide], the results for the half-inhibitory concentration (IC50) in assay [1] and in assay [2] were at most 5 nM and above 100 nM, respectively.

With `Cc1c(-c2cnn(C)c2)cc(C(=O)Nc2ccc(-c3cc(C4CCN(C(=O)C(C)C)CC4)n4ncnc(N)c34)cc2)c(=O)n1-c1cccnc1` [Example 133, N-(4-(4-Amino-7-(1-isobutyrylpiperidin-4-yl)pyrrolo[2,1-f][1,2,4]triazin-5-yl)phenyl)-6-methyl-5-(1-methyl-1H-pyrazol-4-yl)-2-oxo-2H-[1,3′-bipyridine]-3-carboxamide], the IC50 in assay [1] was at most 5 nM; in assay [2], above 100 nM.

Consider `CC(C)C(=O)N1CCC(c2cc(-c3ccc(NC(=O)c4cc(C5CC5)nn(-c5ccccc5)c4=O)cc3)c3c(N)ncnn23)CC1` [Example 117, N-{4-[4-Amino-7-(1-isobutyrylpiperidin-4-yl)pyrrolo[2,1-f][1,2,4]triazin-5-yl]phenyl}-6-cyclopropyl-3-oxo-2-phenyl-2,3-dihydropyridazine-4-carboxamide], for which the IC50 in assay [1] is at most 5 nM; in assay [2], above 100 nM.

As to `CC(C)C(=O)N1CCC(c2cc(-c3ccc(NC(=O)c4cn(C5CC5)c(=O)n(-c5ccccn5)c4=O)cc3)c3c(N)ncnn23)CC1` [Example 144, N-(4-(4-Amino-7-(1-isobutyrylpiperidin-4-yl)pyrrolo[1,2-f][1,2,4]triazin-5-yl)phenyl)-1-cyclopropyl-2,4-dioxo-3-(pyridin-2-yl)-1,2,3,4-tetrahydropyrimidine-5-carboxamide], the half-inhibitory concentration (IC50) in assay [1] is at most 5 nM; in assay [2], above 100 nM.

Turning to `Cc1c(-c2ccnn2C)cc(C(=O)Nc2ccc(-c3cc(C4CCN(C(=O)C(C)C)CC4)n4ncnc(N)c34)cc2)c(=O)n1-c1ccccn1` [Example 123, N-(4-(4-Amino-7-(1-isobutyrylpiperidin-4-yl)pyrrolo[2,1-f][1,2,4]triazin-5-yl)phenyl)-6-methyl-5-(1-methyl-1H-pyrazol-5-yl)-2-oxo-2H-[1,2′-bipyridine]-3-carboxamide], the 50% inhibitory concentration (IC50) in assay [1] was at most 5 nM; in assay [2], above 100 nM.

In the case of `Cc1cc(-n2c(=O)c(C(=O)Nc3ccc(-c4cc(C5CCN(C(=O)C(C)C)CC5)n5ncnc(N)c45)cc3)cn(C(C)C)c2=O)nn1C` [Example 148, N-(4-(4-Amino-7-(1-isobutyrylpiperidin-4-yl)pyrrolo[1,2-f][1,2,4]triazin-5-yl)phenyl)-3-(1,5-dimethyl-1H-pyrazol-3-yl)-1-isopropyl-2,4-dioxo-1,2,3,4-tetrahydropyrimidine-5-carboxamide], the IC50 in assay [1] was at most 5 nM; in assay [2] it was above 100 nM.

As to `Cc1cccc(-n2c(=O)c(C(=O)Nc3ccc(-c4cc(C5CCN(C(=O)C(C)C)CC5)n5ncnc(N)c45)cc3)cn(C(C)C)c2=O)n1` [Example 149, N-(4-(4-Amino-7-(1-isobutyrylpiperidin-4-yl)pyrrolo[1,2-f][1,2,4]triazin-5-yl)phenyl)-1-isopropyl-3-(6-methylpyridin-2-yl)-2,4-dioxo-1,2,3,4-tetrahydropyrimidine-5-carboxamide], the half-inhibitory concentration (IC50) in assay [1] was at most 5 nM; in assay [2], above 100 nM.

With `CC(C)C(=O)N1CCC(c2cc(-c3ccc(NC(=O)c4cn(C(C)C)c(=O)n(-c5ncccn5)c4=O)cc3)c3c(N)ncnn23)CC1` [Example 143, N-(4-(4-Amino-7-(1-isobutyrylpiperidin-4-yl)pyrrolo[1,2-f][1,2,4]triazin-5-yl)phenyl)-1-isopropyl-2,4-dioxo-3-(pyrimidin-2-yl)-1,2,3,4-tetrahydropyrimidine-5-carboxamide], the half-maximal inhibitory concentration (IC50) in assay [1] was at most 5 nM; in assay [2], above 100 nM.

Turning to `CCn1cc(C(=O)Nc2ccc(-c3cc(C4CCN(C(=O)N(C)C)CC4)n4ncnc(N)c34)cc2)c(=O)n(-c2cccc(F)c2)c1=O` [Example 72, N-(4-(4-Amino-7-(1-(dimethylcarbamoyl)piperidin-4-yl)pyrrolo[1,2-f][1,2,4]triazin-5-yl)phenyl)-1-ethyl-3-(3-fluorophenyl)-2,4-dioxo-1,2,3,4-tetrahydropyrimidine-5-carboxamide], the IC50 is at most 5 nM in assay [1] and above 100 nM in assay [2].

For `CCN(C)C(=O)N1CCC(c2cc(-c3ccc(NC(=O)c4cc5c(n(-c6ccc(F)cc6)c4=O)CCCC5=O)cc3F)c3c(N)ncnn23)CC1` [Example 58, N-{4-[4-Amino-7-(1-{[ethyl(methyl)amino]carbonyl}piperidin-4-yl)pyrrolo[2,1-f][1,2,4]triazin-5-yl]-3-fluorophenyl}-1-(4-fluorophenyl)-2,5-dioxo-1,2,5,6,7,8-hexahydroquinoline-3-carboxamide], the concentration for half-maximal inhibition (IC50) in assay [1] is at most 5 nM; in assay [2], above 100 nM.

For the molecule `CC(C)C(=O)N1CCC(c2cc(-c3ccc(NC(=O)c4cn(C5CC5)c(=O)n(-c5cccnc5)c4=O)cc3)c3c(N)ncnn23)CC1` [Example 140, N-(4-(4-Amino-7-(1-isobutyrylpiperidin-4-yl)pyrrolo[2,1-f][1,2,4]triazin-5-yl)phenyl)-1-cyclopropyl-2,4-dioxo-3-(pyridin-3-yl)-1,2,3,4-tetrahydropyrimidine-5-carboxamide], the 50% inhibitory concentration (IC50) in assay [1] was at most 5 nM; in assay [2], above 100 nM.

As to `CC(C)n1cc(C(=O)Nc2ccc(-c3cc(C4CN(C(=O)C5CC5)C4)n4ncnc(N)c34)cc2)c(=O)n(-c2ccccc2)c1=O` [Example 94, N-(4-(4-amino-7-(1-(cyclopropanecarbonyl)azetidin-3-yl)pyrrolo[2,1-f][1,2,4]triazin-5-yl)phenyl)-1-isopropyl-2,4-dioxo-3-phenyl-1,2,3,4-tetrahydropyrimidine-5-carboxamide], the results for the IC50 in assay [1] and in assay [2] were at most 5 nM and above 100 nM, respectively.
